Data on eight molecules can be found in ChEMBL document CHEMBL4422610, “HDAC as onco target: Reviewing the synthetic approaches with SAR study of their inhibitors” (Eur J Med Chem, 2018).

pIC50: −log10 of the molar value.

Sequence of Histone deacetylase 2 (Q92769 whole entry): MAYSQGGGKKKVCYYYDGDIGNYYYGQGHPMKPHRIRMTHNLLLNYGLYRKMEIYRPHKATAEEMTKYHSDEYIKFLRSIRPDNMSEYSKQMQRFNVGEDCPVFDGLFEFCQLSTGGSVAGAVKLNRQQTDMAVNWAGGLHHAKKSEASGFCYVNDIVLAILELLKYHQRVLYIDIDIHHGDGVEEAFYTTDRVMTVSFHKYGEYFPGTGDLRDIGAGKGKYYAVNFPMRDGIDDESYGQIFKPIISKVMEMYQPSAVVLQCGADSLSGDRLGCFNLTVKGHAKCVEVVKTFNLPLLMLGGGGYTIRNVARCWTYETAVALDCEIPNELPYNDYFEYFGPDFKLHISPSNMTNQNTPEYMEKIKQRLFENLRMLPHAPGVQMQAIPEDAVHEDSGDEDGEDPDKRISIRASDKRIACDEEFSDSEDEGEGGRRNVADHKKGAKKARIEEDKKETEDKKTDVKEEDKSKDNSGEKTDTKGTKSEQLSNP
Sequence of Histone deacetylase 1 (Q13547 whole entry): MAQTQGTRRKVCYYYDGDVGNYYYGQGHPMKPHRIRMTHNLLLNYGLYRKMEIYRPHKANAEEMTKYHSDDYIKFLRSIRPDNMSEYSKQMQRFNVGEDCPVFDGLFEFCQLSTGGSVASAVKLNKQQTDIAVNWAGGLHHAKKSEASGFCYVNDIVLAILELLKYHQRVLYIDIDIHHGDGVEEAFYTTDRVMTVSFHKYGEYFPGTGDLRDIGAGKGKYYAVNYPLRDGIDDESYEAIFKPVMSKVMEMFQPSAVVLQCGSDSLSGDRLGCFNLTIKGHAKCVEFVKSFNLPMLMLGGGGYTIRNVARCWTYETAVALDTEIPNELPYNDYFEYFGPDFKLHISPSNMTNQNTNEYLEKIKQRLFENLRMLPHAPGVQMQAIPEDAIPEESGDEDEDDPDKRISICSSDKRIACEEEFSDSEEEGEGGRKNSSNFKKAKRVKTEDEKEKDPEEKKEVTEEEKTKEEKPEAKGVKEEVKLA

The first assay concerns the target Histone deacetylase 1 (Homo sapiens, UniProt Q13547). The assay can be described thus: Inhibition of human HDAC1 using fluorogenic HDAC substrate.
With `O=C(NO)c1ccc(CN2c3ccccc3CCC[C@@H]3CCCC[C@H]32)cc1`, the pIC50 was 5.09.
The molecule `O=C(NO)c1ccc(CN2c3ccccc3C[C@@H]3CCCCC[C@H]32)cc1` gave a pIC50 of under 4.52.

A further assay addresses Histone deacetylase 2 (Homo sapiens, UniProt Q92769). Briefly: Inhibition of human HDAC2 using fluorogenic HDAC substrate.
`O=C(NO)c1ccc(Cn2c3c(c4ccccc42)CS(=O)(=O)CC3)cc1` had a pIC50 of 4.59.
Same read-out and setting: under `O=C(NO)c1ccc(CN2c3ccccc3CCC[C@@H]3CCCC[C@H]32)cc1` stands 4.62; under `O=C(NO)c1ccc(Cn2c3c(c4cc(F)ccc42)CS(=O)(=O)CC3)cc1`, 4.54.

In the next assay the target is Histone deacetylase 3 (Homo sapiens, UniProt O15379). The assay can be described thus: Inhibition of human HDAC3 using fluorogenic HDAC substrate.
Sequence of Histone deacetylase 3 (O15379 whole entry): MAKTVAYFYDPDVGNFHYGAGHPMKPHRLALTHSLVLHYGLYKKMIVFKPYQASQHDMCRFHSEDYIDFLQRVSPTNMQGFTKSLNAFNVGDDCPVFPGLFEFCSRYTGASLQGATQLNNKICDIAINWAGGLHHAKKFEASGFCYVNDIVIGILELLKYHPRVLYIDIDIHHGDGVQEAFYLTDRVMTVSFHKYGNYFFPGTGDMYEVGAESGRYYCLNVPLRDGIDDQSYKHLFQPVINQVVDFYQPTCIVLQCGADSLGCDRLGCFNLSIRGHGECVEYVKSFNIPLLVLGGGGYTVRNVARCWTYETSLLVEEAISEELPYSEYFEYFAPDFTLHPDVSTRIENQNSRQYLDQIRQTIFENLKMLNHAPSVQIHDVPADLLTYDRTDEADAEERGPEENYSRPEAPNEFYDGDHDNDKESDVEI
For `O=C(NO)c1ccc(Cn2c3c(c4ccccc42)CS(=O)(=O)CC3)cc1`, the pIC50 is 4.54.
Same read-out and setting: to `O=C(NO)c1ccc(Cn2c3c(c4cc(F)ccc42)CSCC3)cc1` belongs 4.64.
Same read-out and setting: to `O=C(NO)c1ccc(CN2c3ccccc3CCC[C@@H]3CCCC[C@H]32)cc1` belongs 4.62; to `O=C(NO)c1ccc(CN2c3ccccc3C[C@@H]3CCCCC[C@H]32)cc1`, under 4.52.
Still for that read-out and setting: to `O=C(NO)c1ccc(Cn2c3c(c4cc(F)ccc42)CS(=O)(=O)CC3)cc1` belongs 4.59.

For the next assay, the target named is Histone deacetylase 4 (Homo sapiens, UniProt P56524). The assay can be described thus: Inhibition of human HDAC4 using fluorogenic HDAC substrate.
Sequence of Histone deacetylase 4 (P56524 whole entry): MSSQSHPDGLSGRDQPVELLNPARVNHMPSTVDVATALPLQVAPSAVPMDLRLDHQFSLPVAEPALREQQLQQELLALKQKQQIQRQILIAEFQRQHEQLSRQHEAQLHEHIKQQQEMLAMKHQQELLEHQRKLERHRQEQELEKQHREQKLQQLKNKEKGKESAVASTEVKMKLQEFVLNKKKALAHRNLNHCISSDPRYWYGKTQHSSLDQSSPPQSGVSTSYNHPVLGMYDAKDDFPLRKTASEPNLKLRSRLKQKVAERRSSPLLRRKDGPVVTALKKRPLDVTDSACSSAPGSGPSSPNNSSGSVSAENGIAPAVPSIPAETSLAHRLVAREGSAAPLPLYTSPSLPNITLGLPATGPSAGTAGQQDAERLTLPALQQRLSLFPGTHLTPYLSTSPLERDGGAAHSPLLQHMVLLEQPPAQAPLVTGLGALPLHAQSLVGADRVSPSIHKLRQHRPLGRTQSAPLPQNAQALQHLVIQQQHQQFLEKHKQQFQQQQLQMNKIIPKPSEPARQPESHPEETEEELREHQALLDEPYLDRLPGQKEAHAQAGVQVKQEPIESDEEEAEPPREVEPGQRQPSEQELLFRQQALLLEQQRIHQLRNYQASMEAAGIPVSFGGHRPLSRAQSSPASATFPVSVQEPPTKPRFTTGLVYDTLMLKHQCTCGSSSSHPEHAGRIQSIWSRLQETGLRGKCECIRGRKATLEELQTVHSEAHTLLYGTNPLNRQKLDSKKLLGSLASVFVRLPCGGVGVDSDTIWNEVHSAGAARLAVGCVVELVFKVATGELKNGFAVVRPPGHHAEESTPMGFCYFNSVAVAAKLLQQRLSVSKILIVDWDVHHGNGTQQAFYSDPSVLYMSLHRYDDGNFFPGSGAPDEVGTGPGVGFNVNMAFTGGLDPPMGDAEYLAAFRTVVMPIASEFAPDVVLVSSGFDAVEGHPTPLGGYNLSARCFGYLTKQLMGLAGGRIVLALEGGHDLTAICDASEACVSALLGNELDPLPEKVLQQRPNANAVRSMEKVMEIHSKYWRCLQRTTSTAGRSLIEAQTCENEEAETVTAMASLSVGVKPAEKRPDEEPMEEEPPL
On to `O=C(NO)c1ccc(CN2c3ccccc3CCC[C@@H]3CCCC[C@H]32)cc1`, for which the pIC50 was under 4.52.
Same read-out and setting: under `O=C(NO)c1ccc(CN2c3ccccc3C[C@@H]3CCCCC[C@H]32)cc1` stands under 4.52.

In the next assay the target is Histone deacetylase 5 (Homo sapiens, UniProt Q9UQL6). The assay can be described thus: Inhibition of human HDAC5 using fluorogenic HDAC substrate.
Sequence of Histone deacetylase 5 (Q9UQL6 whole entry): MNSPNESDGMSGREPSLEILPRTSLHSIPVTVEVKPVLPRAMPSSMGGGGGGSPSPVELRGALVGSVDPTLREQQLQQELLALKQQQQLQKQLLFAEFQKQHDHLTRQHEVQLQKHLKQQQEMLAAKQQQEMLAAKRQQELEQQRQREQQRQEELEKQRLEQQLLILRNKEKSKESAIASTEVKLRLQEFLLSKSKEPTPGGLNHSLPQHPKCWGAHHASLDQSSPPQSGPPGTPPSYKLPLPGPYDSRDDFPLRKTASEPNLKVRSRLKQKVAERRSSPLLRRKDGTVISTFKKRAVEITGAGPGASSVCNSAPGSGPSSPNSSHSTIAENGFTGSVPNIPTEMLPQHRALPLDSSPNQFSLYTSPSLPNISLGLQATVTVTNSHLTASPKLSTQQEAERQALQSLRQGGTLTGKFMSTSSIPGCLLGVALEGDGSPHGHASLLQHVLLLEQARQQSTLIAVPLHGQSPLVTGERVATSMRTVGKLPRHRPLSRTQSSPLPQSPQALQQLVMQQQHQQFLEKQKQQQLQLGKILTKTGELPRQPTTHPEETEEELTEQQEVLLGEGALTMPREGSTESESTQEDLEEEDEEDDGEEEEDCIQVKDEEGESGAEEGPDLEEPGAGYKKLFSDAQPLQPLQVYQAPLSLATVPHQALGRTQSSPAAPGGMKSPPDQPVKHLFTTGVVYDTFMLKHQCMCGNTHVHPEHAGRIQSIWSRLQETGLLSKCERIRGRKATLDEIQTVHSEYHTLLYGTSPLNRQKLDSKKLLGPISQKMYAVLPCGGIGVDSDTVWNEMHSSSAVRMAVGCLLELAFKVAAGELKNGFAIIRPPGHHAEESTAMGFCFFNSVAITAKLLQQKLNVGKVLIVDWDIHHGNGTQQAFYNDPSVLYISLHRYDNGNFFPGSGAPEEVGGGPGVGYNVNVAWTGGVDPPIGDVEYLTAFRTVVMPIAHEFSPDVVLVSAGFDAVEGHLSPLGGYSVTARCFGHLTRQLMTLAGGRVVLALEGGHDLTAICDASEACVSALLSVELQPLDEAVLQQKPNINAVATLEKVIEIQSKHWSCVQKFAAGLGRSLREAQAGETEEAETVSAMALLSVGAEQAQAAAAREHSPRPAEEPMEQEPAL
For `O=C(NO)c1ccc(Cn2c3c(c4ccccc42)CS(=O)(=O)CC3)cc1`, the pIC50 is 6.30.
In the case of `O=C(NO)c1ccc(Cn2c3c(c4cc(F)ccc42)CSCC3)cc1`, the pIC50 is 5.74.
In turn, `O=C(NO)c1ccc(CN2c3ccccc3CCC[C@@H]3CCCC[C@H]32)cc1` showed a pIC50 of 5.04.
On the same count and under the same terms, under `O=C(NO)c1ccc(CN2c3ccccc3C[C@@H]3CCCCC[C@H]32)cc1` stands under 4.52; under `O=C(NO)c1ccc(Cn2c3c(c4cc(F)ccc42)CS(=O)(=O)CC3)cc1`, 6.30.

A further assay addresses T1, Protein deacetylase HDAC6 (Homo sapiens, UniProt Q9UBN7).
T1 sequence (Q9UBN7 whole entry): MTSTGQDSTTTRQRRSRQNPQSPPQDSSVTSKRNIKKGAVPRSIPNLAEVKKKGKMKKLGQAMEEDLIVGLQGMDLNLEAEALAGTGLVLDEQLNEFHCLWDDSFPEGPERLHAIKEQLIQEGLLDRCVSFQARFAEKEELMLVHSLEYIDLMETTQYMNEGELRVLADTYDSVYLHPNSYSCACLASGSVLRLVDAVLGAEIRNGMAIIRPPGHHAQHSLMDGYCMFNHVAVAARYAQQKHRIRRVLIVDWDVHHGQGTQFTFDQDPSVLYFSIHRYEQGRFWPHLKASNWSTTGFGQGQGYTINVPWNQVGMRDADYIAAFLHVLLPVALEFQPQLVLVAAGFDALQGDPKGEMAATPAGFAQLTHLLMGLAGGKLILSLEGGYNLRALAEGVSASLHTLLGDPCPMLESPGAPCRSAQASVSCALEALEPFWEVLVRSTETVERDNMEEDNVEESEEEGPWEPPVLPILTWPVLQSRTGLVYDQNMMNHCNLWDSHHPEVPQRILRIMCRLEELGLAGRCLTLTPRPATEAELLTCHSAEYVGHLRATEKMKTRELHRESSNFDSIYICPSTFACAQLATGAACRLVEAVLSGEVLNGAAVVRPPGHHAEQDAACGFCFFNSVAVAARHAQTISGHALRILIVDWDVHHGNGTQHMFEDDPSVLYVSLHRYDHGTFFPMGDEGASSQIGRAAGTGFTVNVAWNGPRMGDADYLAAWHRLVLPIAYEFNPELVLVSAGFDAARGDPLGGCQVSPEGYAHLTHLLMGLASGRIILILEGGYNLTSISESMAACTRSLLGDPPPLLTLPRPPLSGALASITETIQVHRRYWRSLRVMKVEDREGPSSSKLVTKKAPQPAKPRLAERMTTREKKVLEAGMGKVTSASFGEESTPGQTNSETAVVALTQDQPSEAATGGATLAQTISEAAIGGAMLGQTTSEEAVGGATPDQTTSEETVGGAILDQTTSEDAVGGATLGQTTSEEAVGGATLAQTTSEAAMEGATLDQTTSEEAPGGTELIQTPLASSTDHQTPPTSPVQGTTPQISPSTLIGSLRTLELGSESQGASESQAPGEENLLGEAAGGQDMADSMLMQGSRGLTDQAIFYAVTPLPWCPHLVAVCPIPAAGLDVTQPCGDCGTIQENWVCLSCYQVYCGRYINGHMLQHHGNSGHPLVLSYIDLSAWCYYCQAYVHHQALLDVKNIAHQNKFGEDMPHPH
The assay can be described thus: Inhibition of human HDAC6 using fluorogenic HDAC substrate.
For `O=C(NO)c1ccc(CN2c3ccccc3CCC[C@@H]3CCCC[C@H]32)cc1`, the pIC50 is 8.10.
Still for that read-out and setting: under `O=C(NO)c1ccc(CN2c3ccccc3C[C@@H]3CCCCC[C@H]32)cc1` stands 7.48.

In the next assay the target is T2, Histone deacetylase 8 (Homo sapiens, UniProt Q9BY41).
T2 sequence (Q9BY41 whole entry): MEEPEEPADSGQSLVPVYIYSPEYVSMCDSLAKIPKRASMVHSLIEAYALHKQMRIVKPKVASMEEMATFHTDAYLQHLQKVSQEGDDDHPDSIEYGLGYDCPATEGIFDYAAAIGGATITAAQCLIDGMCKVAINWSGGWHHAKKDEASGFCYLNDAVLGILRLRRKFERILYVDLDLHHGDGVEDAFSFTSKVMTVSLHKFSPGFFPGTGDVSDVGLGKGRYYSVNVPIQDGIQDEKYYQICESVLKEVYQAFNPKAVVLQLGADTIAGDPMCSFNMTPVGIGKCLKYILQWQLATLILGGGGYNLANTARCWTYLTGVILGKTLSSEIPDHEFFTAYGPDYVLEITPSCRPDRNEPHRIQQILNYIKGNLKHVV
Briefly: Inhibition of human HDAC8 using fluorogenic HDAC substrate.
Consider `O=C(NO)c1ccc(CN2c3ccccc3CCC[C@@H]3CCCC[C@H]32)cc1`, for which the pIC50 is 5.96.
The same measure, in the same setting: under `O=C(NO)c1ccc(CN2c3ccccc3C[C@@H]3CCCCC[C@H]32)cc1` stands 5.17; under `O=C(NO)c1ccc(Cn2c3c(c4cc(F)ccc42)CS(=O)(=O)CC3)cc1`, 6.05.

The next assay deals with Histone deacetylase 9 (Homo sapiens, UniProt Q9UKV0). Briefly: Inhibition of human HDAC9 using fluorogenic HDAC substrate.
Sequence of Histone deacetylase 9 (Q9UKV0 whole entry): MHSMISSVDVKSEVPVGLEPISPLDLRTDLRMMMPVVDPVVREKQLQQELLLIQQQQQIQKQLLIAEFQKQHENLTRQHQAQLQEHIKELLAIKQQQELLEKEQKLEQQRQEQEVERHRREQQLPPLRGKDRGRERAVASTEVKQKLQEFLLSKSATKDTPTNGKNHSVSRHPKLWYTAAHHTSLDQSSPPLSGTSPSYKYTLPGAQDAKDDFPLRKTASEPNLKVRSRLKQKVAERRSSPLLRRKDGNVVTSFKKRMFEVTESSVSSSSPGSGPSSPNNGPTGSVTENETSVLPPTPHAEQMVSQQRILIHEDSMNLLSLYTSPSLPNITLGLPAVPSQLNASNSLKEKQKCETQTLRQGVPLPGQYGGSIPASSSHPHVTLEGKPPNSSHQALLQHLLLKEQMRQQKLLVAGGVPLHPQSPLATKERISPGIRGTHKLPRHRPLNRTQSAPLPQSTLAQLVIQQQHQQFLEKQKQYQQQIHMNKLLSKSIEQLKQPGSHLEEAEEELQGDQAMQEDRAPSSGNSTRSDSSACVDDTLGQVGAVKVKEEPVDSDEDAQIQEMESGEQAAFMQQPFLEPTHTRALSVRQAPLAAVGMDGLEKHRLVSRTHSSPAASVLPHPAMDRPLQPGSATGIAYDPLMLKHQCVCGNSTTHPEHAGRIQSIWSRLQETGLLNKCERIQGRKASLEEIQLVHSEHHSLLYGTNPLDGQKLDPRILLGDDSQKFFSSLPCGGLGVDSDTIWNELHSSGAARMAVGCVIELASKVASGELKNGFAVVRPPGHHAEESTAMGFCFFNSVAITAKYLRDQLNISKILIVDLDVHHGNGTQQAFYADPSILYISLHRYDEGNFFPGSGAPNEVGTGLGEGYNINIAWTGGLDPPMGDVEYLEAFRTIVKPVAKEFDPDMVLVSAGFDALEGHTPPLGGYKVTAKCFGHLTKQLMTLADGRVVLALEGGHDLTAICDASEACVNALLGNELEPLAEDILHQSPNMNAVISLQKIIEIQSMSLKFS
With `O=C(NO)c1ccc(Cn2c3c(c4ccccc42)CS(=O)(=O)CC3)cc1`, the pIC50 was 6.52.
Same read-out and setting: to `O=C(NO)c1ccc(Cn2c3c(c4cc(F)ccc42)CSCC3)cc1` belongs 6.10.
Same read-out and setting: to `O=C(NO)c1ccc(CN2c3ccccc3CCC[C@@H]3CCCC[C@H]32)cc1` belongs 4.89.
Same read-out and setting: under `O=C(NO)c1ccc(CN2c3ccccc3C[C@@H]3CCCCC[C@H]32)cc1` stands under 4.52; under `O=C(NO)c1ccc(Cn2c3c(c4cc(F)ccc42)CS(=O)(=O)CC3)cc1`, 6.30.

The target in the next assay is T3, Polyamine deacetylase HDAC10 (Homo sapiens, UniProt Q969S8).
T3 sequence (Q969S8 whole entry): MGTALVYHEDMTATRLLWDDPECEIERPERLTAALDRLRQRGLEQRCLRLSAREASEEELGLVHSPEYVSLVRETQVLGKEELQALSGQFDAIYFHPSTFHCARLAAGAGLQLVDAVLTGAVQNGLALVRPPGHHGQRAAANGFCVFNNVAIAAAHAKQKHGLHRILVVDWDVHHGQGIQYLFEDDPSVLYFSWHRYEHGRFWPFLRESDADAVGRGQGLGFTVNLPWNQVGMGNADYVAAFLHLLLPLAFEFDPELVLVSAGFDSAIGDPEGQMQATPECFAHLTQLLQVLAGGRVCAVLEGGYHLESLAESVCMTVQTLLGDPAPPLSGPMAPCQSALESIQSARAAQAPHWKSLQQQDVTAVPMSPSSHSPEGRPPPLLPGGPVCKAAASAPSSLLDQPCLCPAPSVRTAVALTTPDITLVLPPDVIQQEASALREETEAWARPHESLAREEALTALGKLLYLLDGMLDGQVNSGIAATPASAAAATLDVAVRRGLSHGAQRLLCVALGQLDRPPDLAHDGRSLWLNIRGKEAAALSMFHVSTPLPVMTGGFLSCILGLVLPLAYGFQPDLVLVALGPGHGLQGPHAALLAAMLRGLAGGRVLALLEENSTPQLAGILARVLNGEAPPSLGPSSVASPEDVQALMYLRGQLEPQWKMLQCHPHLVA
Briefly: Inhibition of human HDAC10 using fluorogenic HDAC substrate.
`O=C(NO)c1ccc(Cn2c3c(c4ccccc42)CS(=O)(=O)CC3)cc1` showed a pIC50 of 5.11.
`O=C(NO)c1ccc(Cn2c3c(c4cc(F)ccc42)CSCC3)cc1` showed a negative-log IC50 (pIC50) of 4.68.
On the same count and under the same terms, to `O=C(NO)c1ccc(CN2c3ccccc3CCC[C@@H]3CCCC[C@H]32)cc1` belongs 5.00; to `O=C(NO)c1ccc(CN2c3ccccc3C[C@@H]3CCCCC[C@H]32)cc1`, under 4.52; to `O=C(NO)c1ccc(Cn2c3c(c4cc(F)ccc42)CS(=O)(=O)CC3)cc1`, 5.23.

For another assay, the target named is T4, Histone deacetylase 11 (Homo sapiens, UniProt Q96DB2).
T4 sequence (Q96DB2 whole entry): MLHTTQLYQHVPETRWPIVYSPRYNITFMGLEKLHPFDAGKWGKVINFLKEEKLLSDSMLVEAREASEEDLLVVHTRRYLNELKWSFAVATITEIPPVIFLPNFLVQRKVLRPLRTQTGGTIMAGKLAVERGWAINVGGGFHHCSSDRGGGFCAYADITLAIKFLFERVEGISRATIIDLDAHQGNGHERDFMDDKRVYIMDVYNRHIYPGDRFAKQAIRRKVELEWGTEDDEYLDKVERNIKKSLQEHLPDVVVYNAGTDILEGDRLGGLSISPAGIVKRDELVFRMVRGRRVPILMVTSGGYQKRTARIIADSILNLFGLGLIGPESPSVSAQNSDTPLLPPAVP
The assay can be described thus: Inhibition of human HDAC11 using fluorogenic HDAC substrate.
For the molecule `O=C(NO)c1ccc(CN2c3ccccc3CCC[C@@H]3CCCC[C@H]32)cc1`, the pIC50 is 5.62.
For the molecule `O=C(NO)c1ccc(CN2c3ccccc3C[C@@H]3CCCCC[C@H]32)cc1`, the pIC50 is 5.92.

A further assay has as its target T1, Protein deacetylase HDAC6. Briefly: Inhibition of recombinant full-length human HDAC6 expressed in baculovirus expression system using FAM-RHKK(Ac)-H2 as substrate measured by electrophoretic mobility shift assay. On the technique in general: In EMSA bound probe runs differently from free probe, usually more slowly.
Regarding `COc1ccc(CN2CCC3(CCc4ccc(C(=O)NO)cc4C3)C2=O)cc1` (configuration not stated), the pIC50 is at least 7.00.
The same measure, in the same setting: under `CC(C)N1CCC2(CCc3ccc(C(=O)NO)cc3C2)C1=O` (configuration not stated) stands under 6.30; under `O=C(NO)c1ccc2c(c1)CC1(CC2)CCN(Cc2cc(Cl)ccc2Cl)C1=O` (configuration not stated), 6.30 to 7.00.

The pIC50 is the negative decadic logarithm of the IC50, by convention in mol/L.
